Measured values taken from patent publication US6511959B1, “Use of calcium-activated neutral protease (CANP) inhibitors in pharmaceutical preparations” (Norsk Hydro AS, priority 1991, dated 2003).
Square brackets hold non-standard residues; d marks the D form. Peptide text beside a SMILES is read from it. Nle = CCCC[C@H](N)C(=O)O

Assays:
[1] = system: Walker rat tumors; assay: Calpain inhibitor I and II on growth of Walker rat tumors in vivo; set-up: species or system Wistar rats; conditions: liposomal, 27 mg/100 g rat daily i.p.
Method: Male Wistar rats were injected with 10×10^6 Walker tumor cells per rat at the inguinal region. Treatment was started when measurable tumors appeared. Each treatment group consisted of 5 rats. […] Rats were treated with 2 ml liposomal solution of inhibitors at a concentration of 13.5 mg/ml, equivalent to 27 mg/100 g rat, daily by intraperitoneal injection. Rats in the control group received daily injections of saline-filled liposomes. Tumor volume was determined by measuring two diameters with calipers. The data is presented in FIG. 3 in which each data point represents the mean±S.E. tumor volume measurements for 5 rats.

[2] = system: P-cells; assay: Cytological changes of cell cultures in continuous presence of the inhibitors; assay type: cell-based, human; conditions: continuous presence 72 and 120 h, 2 mg/ml trypsin-chymotrypsin inhibitor, 1 mg/ml aprotinin, leupeptin or E64
Method: (§1) a) Cytological Changes of Cell Cultures in Continuous Presence of the Inhibitors
(§2) The following samples were made up in RPMI-1640 complete medium:
(§3) 2. 2 mg/ml trypsin-chymotrypsin inhibitor
(§4) 6. all five inhibitors at the above mentioned concentrations
(§5) 7. RPMI-1640 medium with no inhibitor addition to serve as a control medium.
(§6) Ten glass Petri dishes (5 cm diameter) were seeded each with 1×10^6 M-cells and another ten dishes were seeded each with 1×10^6 P-cells. Duplicate cell cultures received each type of complete medium containing the inhibitors and control cultures received only complete medium. The cell cultures were incubated at 37° C. in a humidified CO2-incubator for 120 hours. The culture medium was changed with fresh medium containing the same inhibitors at 24 and 72 hours after start of the experiment. Half of the cell cultures were fixed in 50% ethanol 72 hours and the other half 120 hours after initiation of the experiment. All cell cultures were stained according to the Papanicolaou method.

[3] = system: M-cells; assay: as above; assay type: cell-based, human; conditions: continuous presence 72 and 120 h, 2 mg/ml trypsin-chymotrypsin inhibitor, 1 mg/ml aprotinin, leupeptin or E64
Method: as §1, §2, §3, §4, §5, §6

[4] = system: human NHIK 3025 cervix carcinoma cells; assay: Cell survival (colony formation) of cervix carcinoma cells; assay type: cell-based; conditions: 24 hours treatment, colonies scored after 12 to 14 days
Text: Human cells of the established line […], originating from a cervical carcinoma in situ (Nordbye, K. and Oftebro, R., 1969, Exp. Cell Res., 58:458 and Oftebro, R. and Nordbye, K., 1969, Exp. Cell Res., 58:459) were cultivated in medium Eagles minimum essential medium (MEM) supplemented with 10% fetal bovine serum and antibiotics. Cells were routinely grown as monolayers in tissue culture flasks. The cells were kept in continuous exponential growth by frequent reculturing every second or third day. During reculturing, as well as during experiments, the cells were kept in humidified CO2 incubators at 37° C.
In the experiments represented in this example, the proteinaceous CANP inhibitor was additionally purified by gel filtration chromatography.
Cell survival studies were performed by adding inhibitors to exponentially growing, asynchronous cells 2 hours after seeding the cells into plastic Petri dishes at known cell densities. The inhibitor treatment period was 24 hours after which the dishes were rinsed with warm (37° C.) Hanks' balanced salt solution and fresh medium without inhibitor, was added. After 12 to 14 days of incubation (with a medium shift on day 7) colonies of cells were fixed in ethanol and stained with methylene blue. Only colonies containing more than 40 cells were scored as survivors. The percent cell survival is calculated relative to untreated, control dishes.

Compound | tumor regression ([1]; 5 doses) | effect on growth or cytology compared to control cell cultures [2] | effect on growth or cytology compared to control cell cultures [3] | cytotoxic effect (cell survival, FIG. 1) [4] | anticancer effect (tumor volume, FIG. 3) [1]
CCCC[C@@H](C=O)NC(=O)[C@H](CC(C)C)NC(=O)[C@H](CC(C)C)NC(C)=O [calpain inhibitor I, N-Acetyl-Leu-Leu-Norleucinal] (Ac-Leu-Leu-[Nle]-aldehyde) | approximately 92% | – | – | – | –
aprotinin | – | did not affect the growth or cytology | did not affect the growth or cytology | – | –
CC(=O)N[C@@H](CC(C)C)C(=O)N[C@@H](CC(C)C)C(=O)N[C@H](C=O)CCCNC(=N)N [leupeptin, N-acetyl-L-leucyl-L-leucyl-L-arginal] | – | did not affect the growth or cytology | did not affect the growth or cytology | little cytotoxic effect | –
CSCC[C@@H](C=O)NC(=O)[C@H](CC(C)C)NC(=O)[C@H](CC(C)C)NC(C)=O [calpain inhibitor II, N-Acetyl-Leu-Leu-Methioninal] (Ac-Leu-Leu-Met-aldehyde) | – | – | – | slightly greater cytotoxicity than aprotinin | anticancer effect from the fourth dose
CC(C)C[C@H](NC(=O)[C@H]1O[C@@H]1C(=O)O)C(=O)NCCCCN=C(N)N (relative stereo) [E64, L-trans-3-carboxy-oxiran-2-carbonyl-L-leucylagmatine] | – | did not affect the growth or cytology | did not affect the growth or cytology | little cytotoxic effect | –
